Results on 64 compounds are retold here after a melting point compilation (Tetko et al.; mined from patent text by program, amines drawn as free bases though some values may be those of a salt).

SMILES strings stand for the structures.

For `CCC(=O)c1sc(Oc2ccc3c(c2)OCO3)c2c1CCc1cnn(C)c1-2`, the melting point (as a rule, the temperature, or range, at which the solid turns liquid) lay within 99 to 100 °C.

Regarding `CCOC(=O)c1cccc(-n2cc(-c3ccccc3)c3c(N)ncnc32)c1`, the melting point lay within 176 to 177 °C. Consider `COc1cc2c(cc1C(F)(F)F)N(C(=O)Nc1ccc(CN(C)C)cc1)CC2`, for which the melting point was 169 to 170 °C. For `O=C1CCC(N2Cc3c(OCc4cccc(CN5CCC(c6ccc(F)cc6F)CC5)c4)cccc3C2=O)C(=O)N1` (centres undefined), the melting point was 211 to 213 °C. `CN[C@@H]1COc2cc(Cl)cc(-c3ccc(Cl)cc3C)c2O1`: the melting point is 110 °C. `CN(C)CC(c1ccccc1)c1nnc2n1-c1ccc(Cl)cc1C(c1ccccc1)=NC2` (centres undefined) displayed a melting point of 168 to 170 °C.

The compound `COc1ccc(C(OC2CCN(CC(=O)O)CC2)c2ccccc2)cc1` (centres undefined) yielded a melting point of 84 to 85 °C.

With `CN(N)c1nc(=S)[nH]c2[nH]cnc12`, the melting point was 245 °C.

On to `Cc1noc2cc3c(cc12)C1(CO3)C(=O)N(Cc2cccnc2)c2ccccc21` (centres undefined), for which the melting point fell in the range of 176 to 177 °C. The compound `NC(=O)N(Cc1ccc(C(F)(F)F)c(N2CCCCC2)c1)c1cccc2c1CC(O)CC2` (centres undefined) returned a melting point of 163 °C. In the case of `COC(=O)c1ccc(C2CNN=C2c2ccc(Cl)cc2)cc1` (centres undefined), the melting point was in the range of 155 to 159 °C.

In turn, `CCOCc1nc2c(N)nc3ccccc3c2n1CC1(O)CCC2(CC1)OCCO2` registered a melting point of 207 to 209 °C. The compound `COC1=CCCSC1c1cc(N2C(=O)C3=C(CCCC3)C2=O)ccc1Cl` (centres undefined) displayed a melting point of 116 to 119 °C. With `CSc1nccc(-c2cn(Cc3ccccc3C#N)c(=O)n2-c2ccc(F)cc2)n1` the figure was 141 to 142 °C; with `COC(=O)CCn1c(C(=O)NCC(=O)N(CC2CCCCC2)c2c(OC)cc(C)cc2OC)cc2ccccc21`, 68 °C. The same measure for `CCc1noc(-c2cc3c4cc(S(=O)(=O)N(C)C)ccc4n(CCCCl)c3cn2)n1`: 223 to 224 °C; for `COc1cc2cc3c(Cl)c(C#N)cnc3nc2cc1OC`: over 300 °C.

For `CCN(CC)CCn1nc2c3c(c(CN)ccc31)Sc1ccc(OC)cc1-2`, the melting point was 74 to 76 °C. The compound `O=C1c2ccccc2CCc2cccnc21` registered a melting point of 118 to 120 °C. `Cn1nccc1-n1ccnc1S(N)(=O)=O` had a melting point of 230 to 233 °C. In the case of `N#CC1Cc2cc3c(cc21)NCC3` (centres undefined), the melting point was in the range of 85 to 87 °C. The same measure for `COc1ccc(OC)c(Nc2nc(-c3ccc(F)cc3)cs2)c1`: 160 °C. On to `CCOC(=O)c1nc(CCS(=O)(=O)c2ccc(Cl)cc2)no1`, for which the melting point lay within 115 to 119 °C. The same measure for `O=C(O)C[C@H](NC(=O)CNC(=O)c1csc(NC(=O)NCc2ccccc2)n1)C(=O)Nc1ccccc1C(=O)O`: 192 °C; for `NC(=O)CC1CN(Cc2ccccc2)CCN1Cc1ccccc1` (centres undefined): 114 °C.

Compound `Oc1cccc(CCc2cc(-c3ccccc3)n(-c3ccccc3)n2)c1` came in with a melting point of 211 to 212 °C. On to `CCCCc1ccc(C(=O)NCCCCCCO)cc1`, for which the melting point was 80 to 81 °C.

Regarding `COc1ccc(C(=O)Nc2ccc(-n3nc(C(F)(F)F)cc3C(F)(F)F)cc2)c(Cl)c1`, the melting point lay in the range of 140 to 143 °C.

As for `CN(C)c1ncccc1NC(=NC#N)NC1(c2ccccc2)CCC1`, the melting point was 204 to 205 °C. Take `Cn1c(-c2ccc(C(N)=O)cc2)cc2c(N3CCCC3)nc(N3CCCC3)nc21`: the melting point fell in the range of 175 to 180 °C.

`CCN(c1nc(C)cc(-c2ccccc2Cl)n1)c1c(Br)cc(N(C)C)cc1OC` displayed a melting point of 131 to 132 °C. `CCC(C)n1ncn(-c2ccc(N3CCN(c4ccc(OCC(O)(Cn5cncn5)c5ccc(Cl)cc5Cl)cc4)CC3)cn2)c1=O` (centres undefined) showed a melting point of 144 to 145 °C.

`Cc1ccc2c(c1)N=C(NCc1cccnc1)c1ccccc1N2` displayed a melting point of 186 to 187 °C. `CONC(=O)NC1CCCc2ccccc21` (centres undefined) registered a melting point of 122 to 125 °C.

Consider `CCc1cc2c(s1)-n1c(C)nnc1C(CCCC(=O)O)N=C2c1ccc(Cl)cc1` (centres undefined), for which the melting point lay in the range of 185 to 187 °C. Turning to `O=C(CC1c2ccccc2S(=O)(=O)C1c1ccccc1)NO` (centres undefined), the melting point lay within 113 to 114 °C. `O=C(Oc1ccc(-c2ccc(O)c([N+](=O)[O-])c2)cc1)c1ccccc1` came in with a melting point of 163 °C. `Clc1ccc2c(c1)N=C(N1CCNCC1)c1nccn1C2`: the melting point lay within 120 to 123 °C.

In the case of `COC(=O)CCSCC(=O)c1ccc2c(c1)CC(=O)N2`, the melting point is 106 to 108 °C.

In turn, `O=C(CN1CCC(NC(=O)c2ccccc2)CC1)c1ccccc1` came in with a melting point of 168 °C. `COc1ccc(-c2ccc(C(C)=O)cc2[N+](=O)[O-])cc1`: the melting point was in the range of 124 to 126 °C.

The compound `CS(=O)(=O)Cc1cnc2ccccc2c1Cl` registered a melting point of 202 to 204 °C.

`COCc1c(-c2ccncc2)[nH]c(-c2ccncc2)c1C(C)=O` returned a melting point of 154 to 156 °C. With `Cc1[nH]c2ccc(F)cc2c1CCCN1CCN(c2ccccc2)CC1` the figure was 146 to 147 °C. In turn, `Cc1ccc(S(=O)(=O)c2ccc3[nH]cc(CCN)c3c2)cc1` had a melting point of 137 to 140 °C. Compound `CCCCc1c2c(nc3ccccc13)-c1cc3c(c(=O)n1C2)COC(=O)CC3(O)CC` (centres undefined) gave a melting point of 220 to 221 °C. `COc1cccc2c1CCc1cnoc1-2` yielded a melting point of 84 to 86 °C. Regarding `c1c[nH]c(C(c2ccc[nH]2)C23CC4CC(CC(C4)C2)C3)c1`, the melting point lay within 168 to 169 °C. `O=C(C=CCl)c1cc(F)c(Cl)cc1Cl`: the melting point is 65 to 70 °C. Turning to `CN1C(=O)CCCC1(O)C=Cc1ccccc1` (centres undefined), the melting point was 108 to 112 °C. Take `Nc1cc(-c2ccccc2)nc2ccccc12`: the melting point lay within 162 to 164 °C. Compound `CC(O)Cc1cc([N+](=O)[O-])cc(N)c1N` (centres undefined) registered a melting point of 174 °C. The compound `O=C1C(=O)N(c2cccc3ccccc23)C(=O)N1c1ccc(Cl)cc1` gave a melting point of 158 °C.

For `Brc1ccc2c3c(cccc13)C(NCCCCn1ccnc1)=N2`, the melting point was in the range of 145 to 147 °C. Turning to `CN(Cc1ccc(NC(=O)C2=Cc3cc(Br)ccc3N(C=O)CC2)cc1)C1CCOCC1`, the melting point fell in the range of 173 to 175 °C. `CCOC(=O)COc1cc(C)sc1C#N` came in with a melting point of 58 °C. For the compound `CN1C(=O)N(c2cc(Cl)cc(Cl)c2)C(=O)[C@]12CN(C1CC1)C[C@H]2c1ccc(C#N)cc1` (relative stereo), the melting point turned out to be 216 °C.

As to `Cc1ccc(-n2nc3c(c2O)-c2ccccc2CC3)nc1`, the melting point is 156 to 157 °C.

The compound `CC(C)(OCc1cc2nc(Cl)ccc2n1S(=O)(=O)c1ccc2c(c1)OCO2)C(=O)O` displayed a melting point of 172 °C. With `COc1c(C#N)c(C)cc2c1C(C)(C)CCC2(C)C` the figure was 71 to 73 °C; with `CCCCCCCCCC(=O)COS(=O)(=O)c1ccc(Cl)cc1`, 51 to 51.5 °C. `CN(C)C1(c2ccccc2)CCC(CC(=O)NCCCCc2c[nH]c3ccccc23)CC1` (centres undefined) returned a melting point of 186 °C. The compound `COC[C@@H]1CCCN1S(=O)(=O)c1ccc2c(c1)C(=O)C1=NCCCN12` registered a melting point of 138 to 141 °C. As for `COC1C=C(Br)C(=O)CO1` (centres undefined), the melting point lay within 74 to 75 °C.
